Results as given in patent US12503455B2, “Nucleic acid-binding photoprobes and uses thereof” (Arrakis Therapeutics, Inc., priority 2017, dated 2025).

Key:
Aptamer 21 [1] = assay: Surface plasmon resonance (SPR) binding to Aptamer 21; conditions: for binding to Aptamer 21 by SPR, separated enantiomers: 10 uM
Text: Surface plasmon resonance (SPR) may be used to screen ligands and hook and click constructs for binding to a target RNA of interest. SPR is especially useful for monitoring biomolecular interactions in real time. Typically, target species and unrelated control are immobilized to a sensor chip, then analytes (compounds/fragments) are flowed over the surface. Binding of the compound to target species results in increase of SPR signal (association phase). Washing away bound compound with buffer results in a decrease of SPR signal (dissociation phase). Fitting of sensorgrams recorded at different compound concentrations is performed to an appropriate interaction model. The method allows extraction of kinetic parameters (ka, kd→KD). Requirements/limitations include that the ka/kd values be in reasonable ranges; and the target size must not be too large (<100 kDa). It is an excellent method to screen fragments and profile or validate hits. BC4000 may be used for primary screening (up to 4,000 data pts/week). Biacore T200 is suitable for hit profiling and validation.
In the PEARL-seq context, SPR allows monitoring binding of “hooks” to DNA/RNA aptamers. The target species is immobilized to sensor chip, analytes (i.e. hooks) are flowed over surface (association phase), DNA/RNA aptamer is flowed over surface (plateau phase), competitor compound is washed over surface (dissociation phase), thus yielding binding data.
Experiments were performed on a MASS-2 (Sierra Sensors) at 25° C. A high capacity amine chip was equilibrated with PBS. The chip was conditioned with alternating injections of 10 mM HCl and 10 mM NaOH in 1 M NaCl. The carboxymethylated dextran of the surface of the amine chip was activated for 7 minutes at a flow rate of 10 μL/min using a 1:1 volume ratio of 0.4 M 1-ethyl-3-(3-dimethylaminopropyl) carbodiimide (Sierra) and 0.1 M N-hydroxysuccinimide (Sierra). Neutravidin (70 μg/mL, Thermofisher) was injected over the activated surface for 10 minutes at a flow rate of 10 μl/min. Excess activated groups were blocked by an injection of 1 M ethanolamine, pH 8.5 (Sierra) for 7 minutes at a flow rate of 10 μl/min. A final injection of 10 mM NaOH in 1 M NaCl for 7 minutes at 10 μl/min was used to remove any unbound material to the chip. The immobilization reaction typically yielded approximately 12,000 resonance units (RU) of neutravidin. At least one spot in a channel was not injected with RNA and was used as a background control. Unrelated RNA was also used as a background control.
A 1 μM sample of biotin-aptamer 21 was prepared in RNAse free water, heated to 95° C. for 3 minutes, cooled on ice for 4 minutes, diluted with an equal volume 2× folding buffer (40 mM Tris-HCl, pH 8.0, 6 mM MgCl2, 200 mM KCl), and incubated at 37° C. for 30 minutes. The final concentration of RNA was 0.5 μM.
The MASS-2 was primed 2 times with 20 mM Tris-HCl, pH 8.0, 3 mM MgCl2, 100 mM KCl (Capture Buffer). RNA was injected over the neutravidin surface for 7 minutes at a flow rate of 10 μl/min. Capture levels typically reached approximately 3500-4500 of resonance units of aptamer 21.
Compounds were diluted 2-fold in 100% DMSO at a starting concentration of 500 μM.
The MASS-2 was primed 2 times with 20 mM Tris-HCl, pH 8.0, 3 mM MgCl2, 100 mM KCl, 1% DMSO (running buffer). Prior to testing compounds 3 injections of running buffer were used to equilibrate the sensor surface. […]

Aptamer 21 [2] = assay: LC-MS analysis of cross-linked RNA; type: binding
Method: (§1) Folded RNA (1.33 μM) was incubated with or without the photoaffinity probe (20 μM) in total 100 μL of buffer (20 mM TrisHCl pH 8, 100 mM KCl, 3 mM MgCl2) with 2% DMSO for 30 min at 37° C. to allow binding to come to equilibrium. The sample was then irradiated with long wave UV light (˜365 nm) for 30 min in a UV crosslinker (Fisher Scientific).
The RNA was then precipitated by adding 10 μL of 3 M sodium acetate pH 5 and 275 μL ethanol, cooling to −80° C. for 1 h, and then centrifuging at 20,500×g at 4° C. for 30 min. The RNA pellet was washed with 500 μL of 70% ethanol, air dried for 5 min, and then resuspended in 120 μL of water.
50 μL of RNA sample was injected onto Clarity 2.6 μm Oligo X-T column (50*2.1 mm, 60° C.), and the gradient and flowrate were as follows: 95% A/5% B to 75% A/25% B over 5 min, flowrate: 400 μL/min; 75% A/25% B to 30% A/70% B over 1 min, flowrate: 400 μL/min; 100% D over 1 min, flowrate: 500 μL/min; 95% A/5% B over 2 min, flowrate: 500 μL/min (A: 1% HFIPA (hexafluoroisopropyl alcohol), 0.1% DIEA (diisopropylethylamine), 1 μM EDTA (ethylenediamine tetraacetic acid) in H2O; B: 0.075% HFIPA, 0.0375% DIEA, 1 μM EDTA in 65/35 MeCN/H2O; D: 40/40/20% MeOH/MeCN/H2O); The LCMS instrument was a Thermo Finnigan LTQ, and ProMass deconvolution software coupled with Xcaliber were used for all data processing.

Aptamer 21 [3] = assay: Competition between Aptamer 21 photoprobes and RNA-binding ligands (RT pausing)
Method: Aptamer 21 was either incubated with probe alone (ARK-581) or probe plus a 10-fold excess of RNA-binding ligand.
Both ARK-852 and ARK-139 inhibit the photocrosslinking of probes to Aptamer 21.
as §1, with “RNA (1” for “RNA (1.33”, “with” for “with or without”, “probe (10” for “probe (20”, “total 25” for “total 100”, “with 2.5%” for “with 2%”
(§2) A 3.75 μL aliquot of 10 μM reverse transcription primer was added to the cross-linked RNA sample, which was then incubated for 5 min at 65° C. and then cooled on ice. The sample was then diluted to a final volume of 60 μL and final buffer concentration of 1× Protoscript-II buffer (New England Biolabs), 0.5 mM dNTPs, 10 mM DTT, 0.4 U/μL RNase Inhibitor (New England Biolabs), and 10 U/μL Protoscript-II (New England Biolabs). The reaction was incubated at 45° C. for 2 h, 65° C. for 20 min, and then 4° C.
(§3) The RNA was hydrolyzed by the addition of 4.8 μL of 2.5 M NaOH and heating at 95° C. for 5 min. The reaction was quenched by the addition of 0.9 μL of acetic acid. The cDNA was precipitated by the addition of 6.6 μL of 3 M sodium acetate pH 5 and 181 μL ethanol, cooling to −80° C. for 1 h, and then centrifuging at 20,500×g at 4° C. for 30 min. The cDNA pellet was washed twice with 500 μL of 70% ethanol and then air dried for 5 min.
(§4) The cDNA pellet was resuspended in 12 μL of 1×TBE-urea sample loading buffer (Bio-Rad) and heated to 95° C. for 5 min. The sample was then run on a pre-cast 8.6×6.7 cm TBE-urea 10% PAGE gel (Bio-Rad) at 120 V until the lower bromophenol blue dye reached the bottom of the gel. The gel was stained with 1×SYBR-gold (Invitrogen) in 1×TBE buffer at room temperature for 20 min covered from light. The gel fluorescence was imaged on an Azure c600 instrument.

Aptamer 21 [4] = assay: Reverse transcriptase pausing (drop-off) gel assay of photo-crosslinking to Aptamer 21; type: binding; conditions: FIG. 52
Method: A solution of RNA at 2 to 5 μM in nuclease-free water was heated to 95° C. for 3 min and then cooled on ice for 2 min. This solution was diluted with ½ volume of 3×RNA folding buffer (60 mM TrisHCl pH 8, 300 mM KCl, 9 mM MgCl2) and incubated at 37° C. for 20 min. Folding was carried out immediately before use of the RNA in each experiment. In cases where a mixture of RNA molecules was used in vitro the RNAs were folded separately and then combined prior to the probing experiment.
as §1, with “RNA (1” for “RNA (1.33”, “with” for “with or without”, “probe (10” for “probe (20”, “total 25” for “total 100”, “with 2.5%” for “with 2%”
as §2, §3, §4

COC(=O)C1=C(COCc2cn(CCOCCOCCO)nn2)NC(c2ccncc2)=N[C@@H]1c1ccc(F)cc1Cl [ARK-702, (S)-methyl 4-(2-chloro-4-fluorophenyl)-6-(((1-(2-(2-(2-hydroxyethoxy)ethoxy)ethyl)-1H-1,2,3-triazol-4-yl)methoxy)methyl)-2-(pyridin-4-yl)-1,4-dihydropyrimidine-5-carboxylate]
binding to Aptamer 21 by SPR, separated enantiomers (Aptamer 21 [1]): did not bind

COC(=O)C1=C(COCc2cn(CCOCCOCCNC(=O)c3ccc(N=[N+]=[N-])cc3)nn2)NC(c2ccncc2)=NC1c1ccc(F)cc1Cl (stereo not shown) [ARK-581]
covalent modification of the RNA by LC-MS (Aptamer 21 [2]): 10%

Cc1ccc(C(=O)N2Cc3ccccc3C[C@H]2C(N)=O)cc1NCc1c(F)ccc(O)c1F [ARK-852]
binding to Aptamer 21 by SPR (Aptamer 21 [1]): SPR-active | inhibition of photocrosslinking of ARK-581 to Aptamer 21 (Aptamer 21 [3]; 10-fold excess of RNA-binding ligand over probe): efficiently inhibited | inhibition of photocrosslinking of probes to Aptamer 21 (RT pausing competition assay) (Aptamer 21 [3]; FIG. 65): inhibit

Cc1ncccc1C(=O)n1ccnc1 [NAI, 2-methylnicotinic acid imidazolide, reference compound]
shortened sequences produced in PEARL-seq reverse transcriptase pausing gel assay (Aptamer 21 [4]): numerous shortened sequences

COC(=O)C1=C(COCc2cn(CCOCCOCCO)nn2)NC(c2ccncc2)=N[C@H]1c1ccc(F)cc1Cl [ARK-701, (R)-methyl 4-(2-chloro-4-fluorophenyl)-6-(((1-(2-(2-(2-hydroxyethoxy)ethoxy)ethyl)-1H-1,2,3-triazol-4-yl)methoxy)methyl)-2-(pyridin-4-yl)-1,4-dihydropyrimidine-5-carboxylate]
binding to Aptamer 21 by SPR, separated enantiomers (Aptamer 21 [1]): did bind
